We go through four compounds from publication PMC6478789, “A chemical toolbox for the study of bromodomains and epigenetic signaling” (Nature Communications, 2019).

Common to all, as to assay: BROMOscan ligand-binding assay
The target in one experiment is BRD3(1,2) (Homo sapiens, UniProt Q15059). As to conditions: KD.
In another experiment the target is T1, BAZ2A (Homo sapiens, UniProt Q9UIF9).
T1 sequence (Q9UIF9 1793-1897 limits assumed): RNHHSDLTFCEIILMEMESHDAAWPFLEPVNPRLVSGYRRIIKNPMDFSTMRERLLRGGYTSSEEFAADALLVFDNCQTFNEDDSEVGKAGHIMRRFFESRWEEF

For another experiment, the target named is T2, BRD9 (Homo sapiens, UniProt Q9H8M2).
T2 sequence (Q9H8M2 136-240 limits assumed): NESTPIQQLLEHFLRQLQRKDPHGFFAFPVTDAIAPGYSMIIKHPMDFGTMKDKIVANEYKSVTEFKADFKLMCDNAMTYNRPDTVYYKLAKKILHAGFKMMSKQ
As to conditions: KD.

Another experiment addresses T3, BRD7 (Homo sapiens, UniProt Q9NPI1).
T3 sequence (Q9NPI1 131-235 limits assumed): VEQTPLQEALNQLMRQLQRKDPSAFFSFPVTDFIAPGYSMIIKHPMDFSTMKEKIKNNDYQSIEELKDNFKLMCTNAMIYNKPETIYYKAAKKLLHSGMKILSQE
As to conditions: KD.

Another experiment has as its target FALZ (Homo sapiens, UniProt Q12830). As to conditions: KD.
A further experiment deals with T4, ATAD2A (Homo sapiens, UniProt Q6PL18).
T4 sequence (Q6PL18 980-1092 limits assumed): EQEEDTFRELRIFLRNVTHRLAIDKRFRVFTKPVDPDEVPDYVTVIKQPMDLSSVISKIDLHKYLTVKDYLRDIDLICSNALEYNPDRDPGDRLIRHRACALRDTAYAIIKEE

In a further experiment the target is CECR2 (Homo sapiens, UniProt Q9BXF3). As to conditions: KD.
Another experiment has as its target BRDT(1) (Homo sapiens, UniProt Q58F21). The conditions noted are these: KD.
The target in a further experiment is T5, TAF1L(2) (Homo sapiens, UniProt Q8IZX4).
T5 sequence (Q8IZX4 1517-1626 limits assumed): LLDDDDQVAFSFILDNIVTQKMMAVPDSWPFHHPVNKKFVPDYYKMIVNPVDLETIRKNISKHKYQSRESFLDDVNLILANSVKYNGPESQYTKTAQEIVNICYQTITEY

The next experiment has as its target BRDT(1,2) (Homo sapiens, UniProt Q58F21). As to conditions: KD.
In the next experiment the target is T6, GCN5L2 (Homo sapiens, UniProt Q92830).
T6 sequence (Q92830 728-832 limits assumed): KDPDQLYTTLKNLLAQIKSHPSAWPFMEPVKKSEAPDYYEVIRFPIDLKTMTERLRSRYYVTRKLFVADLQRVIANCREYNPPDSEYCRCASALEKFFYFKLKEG

Another experiment deals with T7, PCAF (Homo sapiens, UniProt Q92831).
T7 sequence (Q92831 723-827 limits assumed): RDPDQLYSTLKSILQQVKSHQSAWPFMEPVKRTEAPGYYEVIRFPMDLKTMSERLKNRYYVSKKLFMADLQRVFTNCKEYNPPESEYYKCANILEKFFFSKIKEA

The target of the next experiment is BRD4(1,2) (Homo sapiens, UniProt O60885).
The target in another experiment is T8, ATAD2B (Homo sapiens, UniProt Q9ULI0).
T8 sequence (Q9ULI0 951-1066 limits assumed): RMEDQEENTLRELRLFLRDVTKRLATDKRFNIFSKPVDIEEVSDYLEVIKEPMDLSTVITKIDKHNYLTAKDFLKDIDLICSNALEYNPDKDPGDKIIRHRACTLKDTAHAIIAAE

The target in another experiment is T9, BRD1 (Homo sapiens, UniProt O95696).
T9 sequence (O95696 562-666 limits assumed): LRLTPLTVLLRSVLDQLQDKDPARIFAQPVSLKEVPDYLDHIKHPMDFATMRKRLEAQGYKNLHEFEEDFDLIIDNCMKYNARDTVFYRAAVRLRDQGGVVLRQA

The next experiment has as its target T10, TAF1(2) (Homo sapiens, UniProt P21675).
T10 sequence (P21675 1519-1628 limits assumed): T5 sequence (Q8IZX4 1517-1626 limits assumed) with M46V, V51M, I102V, I107L

For the next experiment, the target named is BRD4(2) (Homo sapiens, UniProt O60885).
In the next experiment the target is T11, TRIM33(PHD,BRD) (Homo sapiens, UniProt Q9UPN9).
T11 sequence (Q9UPN9 882-1087 limits assumed): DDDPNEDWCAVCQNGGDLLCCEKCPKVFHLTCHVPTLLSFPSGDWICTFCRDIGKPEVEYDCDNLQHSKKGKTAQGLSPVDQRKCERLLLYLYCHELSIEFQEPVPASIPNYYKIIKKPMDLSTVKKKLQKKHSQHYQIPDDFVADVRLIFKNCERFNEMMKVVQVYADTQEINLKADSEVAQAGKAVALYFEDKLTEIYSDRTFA

The target in the next experiment is T12, EP300 (Homo sapiens, UniProt Q09472).
T12 sequence (Q09472 1049-1156 limits assumed): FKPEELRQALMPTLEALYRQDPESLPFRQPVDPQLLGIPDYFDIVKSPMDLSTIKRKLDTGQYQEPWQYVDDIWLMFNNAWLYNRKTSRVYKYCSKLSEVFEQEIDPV
As to conditions: KD.

Where [1] appears, read: KD (BROMOscan), sheet prints no unit (nM).
Setting [2] is: BROMOscan Gene Symbol BRD3(1,2).
[3] abbreviates: KD, BROMOscan Gene Symbol ATAD2A.
[4] abbreviates: BROMOscan Gene Symbol BRDT(1,2).
[5] abbreviates: KD, BROMOscan Gene Symbol ATAD2B.

Numbering of substitutions follows the chain as printed.

Chain of BRD3(1,2) (Q15059 24-416 limits assumed): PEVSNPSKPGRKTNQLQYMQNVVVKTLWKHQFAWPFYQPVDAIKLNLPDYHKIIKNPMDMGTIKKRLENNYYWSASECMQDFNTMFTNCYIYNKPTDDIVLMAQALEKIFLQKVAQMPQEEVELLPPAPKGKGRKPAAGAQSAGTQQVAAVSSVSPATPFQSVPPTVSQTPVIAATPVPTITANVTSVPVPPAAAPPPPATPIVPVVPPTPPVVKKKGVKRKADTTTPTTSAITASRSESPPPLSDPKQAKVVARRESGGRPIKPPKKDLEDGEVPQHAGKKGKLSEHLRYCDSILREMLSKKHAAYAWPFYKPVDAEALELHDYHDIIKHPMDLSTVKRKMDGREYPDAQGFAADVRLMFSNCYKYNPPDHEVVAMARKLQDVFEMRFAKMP
Chain of CECR2 (Q9BXF3 434-538 limits assumed): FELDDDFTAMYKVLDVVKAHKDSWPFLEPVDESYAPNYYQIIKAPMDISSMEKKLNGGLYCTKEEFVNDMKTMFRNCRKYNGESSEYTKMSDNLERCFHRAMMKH
Description for ATAD2A: (§1) BROMOscan is a binding assay based on the well-known KINOMEscan technology. This assay measures the binding of a DNA-tagged bromodomain to an immobilized BRD ligand. If an inhibitor is present, it will compete with the bromodomain binding to the immobilized ligand, resulting in reduction of a quantitative PCR (qPCR) signal in a dose-dependent manner.
Description for ATAD2B: as §1
Description for BAZ2A: as §1
Description for BRD1: as §1
Description for BRD3(1,2): as §1
Description for BRD4(1,2): as §1
Description for BRD4(2): as §1
Description for BRD7: as §1
Description for BRD9: as §1
Description for BRDT(1): as §1
Description for BRDT(1,2): as §1
Description for CECR2: as §1
Description for EP300: as §1
Description for FALZ: as §1
Description for GCN5L2: as §1
Description for PCAF: as §1
Description for TAF1(2): as §1
Description for TAF1L(2): as §1
Description for TRIM33(PHD,BRD): as §1

As usually defined, the Kd is the constant that tells how readily two partners part at equilibrium. Higher therefore signals a looser complex. On to `COc1ccc(CCc2nc3cc(-c4c(C)noc4C)ccc3n2C[C@H](C)N2CCOCC2)cc1Cl` [SGC-CBP30], for which the Kd on BRD3(1,2) (BROMOscan, BRD3(1,2)) is 1.1 µM; at BAZ2A, 69 µM; at BRD9 (BROMOscan, BRD9), 6.1 µM; on BRD7 (BROMOscan, BRD7), 39 µM; on FALZ (BROMOscan, FALZ), 81 µM; on ATAD2A (setting [1]) it was greater than 30000 nM. Further, the Kd is greater than 100000 nM at ATAD2A (KD, BROMOscan, ATAD2A); 7.9 µM at CECR2 (BROMOscan, CECR2); 2.6 µM at BRDT(1) (BROMOscan, BRDT(1)); 7.1 µM at TAF1L(2); 3.1 µM on BRDT(1,2) (BROMOscan, BRDT(1,2)); greater than 30000 nM at GCN5L2 (setting [1]). Also, the Kd on GCN5L2 (KD, BROMOscan, GCN5L2) was greater than 100000 nM; on PCAF (setting [1]) it was greater than 30000 nM; at PCAF (KD, BROMOscan, PCAF) it was greater than 100000 nM; at BRD4(1,2), 3.4 µM; at ATAD2B (setting [1]) it was greater than 30000 nM; at ATAD2B (KD, BROMOscan, ATAD2B) it was greater than 100000 nM. The Kd was 21 µM at BRD1; 3.1 µM on TAF1(2); 6.2 µM at BRD4(2); greater than 30000 nM at TRIM33(PHD,BRD) (setting [1]); greater than 100000 nM at TRIM33(PHD,BRD) (KD, BROMOscan, TRIM33(PHD,Bromo.)).

Turning to `CCCOc1ccn2c(C(C)=O)cc(-c3ccccc3S(C)(=O)=O)c2c1` [GSK2801], the Kd is 17 µM at BRD3(1,2) (setting [2]); 0.12 µM on BRD9 (BROMOscan Gene Symbol BRD9); 22 µM on BRD7 (BROMOscan Gene Symbol BRD7); 95 µM on FALZ (BROMOscan Gene Symbol FALZ); greater than 30000 nM at ATAD2A (setting [1]); greater than 100000 nM on ATAD2A (setting [3]). The Kd was 9 µM on CECR2 (BROMOscan Gene Symbol CECR2); 30 µM on BRDT(1) (BROMOscan Gene Symbol BRDT(1)); 5.1 µM on TAF1L(2); 52 µM on BRDT(1,2) (setting [4]); greater than 30000 nM at GCN5L2 (setting [1]); greater than 100000 nM at GCN5L2 (KD, BROMOscan Gene Symbol GCN5L2). The Kd on PCAF (setting [1]) was greater than 30000 nM; on PCAF (KD, BROMOscan Gene Symbol PCAF) it was greater than 100000 nM; on BRD4(1,2) it was 65 µM; at EP300 (BROMOscan Gene Symbol EP300) it was 70 µM; on ATAD2B (setting [1]), greater than 30000 nM; at ATAD2B (setting [5]), greater than 100000 nM. The Kd at BRD1 is 60 µM; at TAF1(2), 1.4 µM; at BRD4(2), 29 µM; at TRIM33(PHD,BRD) (setting [1]), greater than 30000 nM; on TRIM33(PHD,BRD) (KD, BROMOscan Gene Symbol TRIM33(PHD,Bromo.)), greater than 100000 nM.

Turning to `CCC(=O)N1CCOc2c(cc(-c3ccc(OC)c(OC)c3)cc2OCC2CCCN(C)C2)C1` (stereo not shown) [I-CBP112], the Kd at BRD3(1,2) (setting [2]) was 6.3 µM; on BAZ2A, 70 µM; on BRD9 (BROMOscan Gene Symbol BRD9), 25 µM; on BRD7 (BROMOscan Gene Symbol BRD7) it was 7.6 µM; at FALZ (FALZ), 5.5 µM; at ATAD2A (setting [1]), greater than 30000 nM. In addition, the Kd on ATAD2A (setting [3]) was greater than 100000 nM; at CECR2 (CECR2), 17 µM; at BRDT(1) (BROMOscan Gene Symbol BRDT(1)), 4.2 µM; at TAF1L(2) it was 52 µM; on BRDT(1,2) (setting [4]), 9.6 µM; on GCN5L2 (setting [1]), greater than 30000 nM. For the same compound, the Kd was greater than 100000 nM at GCN5L2 (KD, GCN5L2); 77000 nM on PCAF (KD, PCAF); 11 µM at BRD4(1,2); 0.12 µM at EP300 (EP300); 71000 nM at ATAD2B (setting [5]); 51 µM on BRD1. In addition, the Kd at TAF1(2) was 45 µM; at BRD4(2), 16 µM; on TRIM33(PHD,BRD) (setting [1]), greater than 30000 nM; at TRIM33(PHD,BRD) (KD, TRIM33(PHD,Bromo.)), greater than 100000 nM.

Consider `O=C(O)c1ccccc1O` [Salicylic Acid], for which the Kd at BAZ2A, at BRD9 (BRD9), at BRD7 (BRD7), on FALZ (FALZ), on CECR2 (CECR2) and at BRDT(1) (BRDT(1)) was greater than 14000 µM in each case. Also, the equilibrium dissociation constant (Kd) on TAF1L(2) was greater than 14000 µM; at BRDT(1,2) (BRDT(1,2)), 6100 µM; on GCN5L2 (KD, GCN5L2), greater than 1.4e+07 nM; at PCAF (KD, PCAF) it was greater than 1.4e+07 nM; at BRD4(1,2), greater than 14000 µM; at EP300 (EP300) it was greater than 14000 µM. Moreover, the Kd on ATAD2B (KD, ATAD2B) was greater than 1.4e+07 nM; on BRD1, greater than 14000 µM; on TAF1(2) it was greater than 14000 µM; on BRD4(2), greater than 14000 µM; at TRIM33(PHD,BRD) (KD, TRIM33(PHD,Bromo.)) it was greater than 1.4e+07 nM.
